What was measured:
P-gp (MDR1), human = experiment: Apparent permeability from apical to basolateral side in MDCK-MDR1 cells transfected with human p-gp; type: ADME, cell-based, Canis lupus familiaris; settings: dog
[1] = Volume of distribution at steady state in rat; type: ADME; settings: in vivo, read-out: Vdss

COc1nn(-c2cnccn2)cc1C(=O)Nc1cccc(-c2nncn2C(C)C)n1
Papp A→B (P-gp (MDR1), human): 5 ×10⁻⁶ cm/s
Vd [1]: 2.3 L/kg

C[C@H]1CCCOc2nn(C)cc2C(=O)Nc2cccc(n2)-c2nncn21
Papp A→B (P-gp (MDR1), human): 1.8 ×10⁻⁶ cm/s
Vd [1]: 2.7 L/kg

From ChEMBL document CHEMBL4602708, “Discovery of CNS-Penetrant Apoptosis Signal-Regulating Kinase 1 (ASK1) Inhibitors” (ACS Med Chem Lett, 2020)
